Measured values as given in patent US11198694B2, “HDAC6 inhibitors, with improved solubility and their uses” (UNIVERSITÄT REGENSBURG, priority 2017, dated 2021).

Key:
[1] = Solubility in H2O; type: physicochemical; conditions: water
[2] = biological target: T1, human HDAC8 (Homo sapiens, UniProt Q9BY41); test: Fluorescence HDAC enzyme inhibition assay (Reaction Biology Corporation); type: biochemical
T1 construct: purchased Reaction Biology Corporation HDAC8
T1 sequence (Q9BY41 1-377): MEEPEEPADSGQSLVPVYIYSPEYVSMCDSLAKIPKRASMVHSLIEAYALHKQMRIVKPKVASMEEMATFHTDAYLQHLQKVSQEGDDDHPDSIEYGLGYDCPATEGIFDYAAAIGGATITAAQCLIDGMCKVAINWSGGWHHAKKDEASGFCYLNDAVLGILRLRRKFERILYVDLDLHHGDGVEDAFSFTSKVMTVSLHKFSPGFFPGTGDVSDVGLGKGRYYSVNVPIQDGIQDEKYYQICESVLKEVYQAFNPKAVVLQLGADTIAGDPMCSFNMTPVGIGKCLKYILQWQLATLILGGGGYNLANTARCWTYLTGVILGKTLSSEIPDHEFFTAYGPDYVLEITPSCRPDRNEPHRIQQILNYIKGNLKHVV
Procedure: (§1) The IC50 values for the various inhibitors against the isoenzymes of HDAC were measured by Reaction Biology Corporation (Malvern, Pa., USA) (Buffer, Kalin et al. 2010): For the enzyme inhibition assay, human recombinant protein material was used (human HDAC2 (CAT #: HDAC2), human HDAC6 (CAT #: HDAC6) or human HDAC8 (CAT #: HDAC8)). A 10-point dose response curve was prepared using a 3-fold dilution series (1:3), started at a concentration of 1 μM in DMSO for the synthesized drugs and 10 μM in DMSO for the reference substance Trichostatin A231 (TSA, for HDAC 2, 6 and 8). Reaction time was 90 minutes at 37° C. in a volume of 50 μL in a 96 well plate. Reaction buffer: 50 mM Tris-HCl, pH=8.0, 137 mM NaCl, 2.7 mM KCl, and 1 mM MgCl2 freshly added: 1 mg/ml bovine serum albumin. The fluorescence was measured using a fluoroscope Ascent™ FL fluorometer. The percent enzyme activity was calculated relative to the DMSO control. IC50 values were calculated using GraphPad Prism (GraphPad Prism 4.0 Software, San Diego, USA) based on a sigmoidal dose-response equation.
(§2) HDAC enzyme inhibition assays were conducted by Reaction Biology Corporation (Malvern, Pa., USA) using a ten point dose response curve with half-log serial dilutions, fluorogenic peptides at 50 μM as enzymatic substrates. Substrate for HDAC 2 and 6: fluorogenic peptide from p53 residues 379-382 (RHKK(Ac)AMC). Substrate for HDAC-8: fluorogenic peptide from p53 residues 379-382 (RHK(Ac)K(Ac)AMC).

[3] = biological target: T2, human HDAC6 (Homo sapiens, UniProt Q9UBN7); test: as above; type: biochemical
T2 construct: purchased Reaction Biology Corporation HDAC6
T2 sequence (Q9UBN7 1-1215): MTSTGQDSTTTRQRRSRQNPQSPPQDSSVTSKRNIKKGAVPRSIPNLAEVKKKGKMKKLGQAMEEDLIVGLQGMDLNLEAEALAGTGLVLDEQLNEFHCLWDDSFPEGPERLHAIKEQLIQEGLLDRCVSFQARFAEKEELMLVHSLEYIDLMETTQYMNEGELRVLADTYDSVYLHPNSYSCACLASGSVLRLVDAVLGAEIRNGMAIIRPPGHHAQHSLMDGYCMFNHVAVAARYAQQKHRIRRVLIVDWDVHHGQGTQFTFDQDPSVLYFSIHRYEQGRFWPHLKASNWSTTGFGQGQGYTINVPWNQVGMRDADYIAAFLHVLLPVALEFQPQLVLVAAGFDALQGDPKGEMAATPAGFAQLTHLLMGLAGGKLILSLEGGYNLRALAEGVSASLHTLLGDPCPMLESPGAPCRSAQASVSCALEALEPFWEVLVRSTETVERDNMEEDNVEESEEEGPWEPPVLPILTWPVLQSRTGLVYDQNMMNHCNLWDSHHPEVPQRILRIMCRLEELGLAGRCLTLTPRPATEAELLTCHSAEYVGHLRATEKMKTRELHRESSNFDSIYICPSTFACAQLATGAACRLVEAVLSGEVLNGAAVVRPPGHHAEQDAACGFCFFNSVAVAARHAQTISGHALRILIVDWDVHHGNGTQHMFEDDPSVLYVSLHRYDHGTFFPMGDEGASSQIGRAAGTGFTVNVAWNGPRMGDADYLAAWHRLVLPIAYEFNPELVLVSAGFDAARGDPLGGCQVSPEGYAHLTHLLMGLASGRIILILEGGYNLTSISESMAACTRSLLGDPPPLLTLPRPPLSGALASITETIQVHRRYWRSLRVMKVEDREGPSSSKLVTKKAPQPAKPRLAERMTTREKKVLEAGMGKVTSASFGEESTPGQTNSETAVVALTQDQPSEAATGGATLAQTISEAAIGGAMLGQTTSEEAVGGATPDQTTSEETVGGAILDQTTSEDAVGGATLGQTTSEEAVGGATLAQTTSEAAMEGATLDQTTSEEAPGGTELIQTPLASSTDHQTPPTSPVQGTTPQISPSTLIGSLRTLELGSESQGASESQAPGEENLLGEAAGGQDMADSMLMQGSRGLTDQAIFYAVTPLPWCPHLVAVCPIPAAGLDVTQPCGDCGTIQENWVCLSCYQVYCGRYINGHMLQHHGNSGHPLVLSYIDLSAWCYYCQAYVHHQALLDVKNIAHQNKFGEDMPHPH
Procedure: as §1, §2

[4] = biological target: T3, human HDAC2 (Homo sapiens, UniProt Q92769); test: as above; type: biochemical
T3 construct: purchased Reaction Biology Corporation HDAC2
T3 sequence (Q92769 whole entry): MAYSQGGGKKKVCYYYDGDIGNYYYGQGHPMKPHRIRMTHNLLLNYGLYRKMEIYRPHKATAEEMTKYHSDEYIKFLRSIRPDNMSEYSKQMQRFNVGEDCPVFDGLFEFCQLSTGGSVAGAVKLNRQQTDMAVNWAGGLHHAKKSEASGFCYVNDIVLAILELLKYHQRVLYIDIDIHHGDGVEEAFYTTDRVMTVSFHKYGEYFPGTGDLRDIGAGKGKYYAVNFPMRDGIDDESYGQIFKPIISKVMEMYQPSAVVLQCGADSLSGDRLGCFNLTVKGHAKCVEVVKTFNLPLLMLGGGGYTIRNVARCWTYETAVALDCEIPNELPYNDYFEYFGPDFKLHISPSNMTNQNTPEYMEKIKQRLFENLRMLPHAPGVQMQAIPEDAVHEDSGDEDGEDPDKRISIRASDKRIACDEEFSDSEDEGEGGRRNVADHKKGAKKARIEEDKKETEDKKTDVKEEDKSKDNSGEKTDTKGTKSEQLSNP
Procedure: as §1, §2

Row | Compound | solubility [1] [µg/mL] | IC50 [2] [nM] | IC50 [3] [nM] | IC50 [4] [nM] | melting point [°C]
1 | CN1C(=O)C2CN(Cc3c2c2ccccc2n3Cc2ccc(C(=O)NO)cc2)C1=O (stereo not drawn) | < 1000 | – | – | – | –
2 | CN1CC(=O)N2CCc3c(c4ccccc4n3Cc3ccc(C(=O)NO)cc3)C2C1=O (stereo not drawn) [Compound 31b, N-hydroxy-4-((2-methyl-1,4-dioxo-1,3,4,6,7,12c-hexahydropyrazino[1′,2′:1,2]pyrido[4,3-b]indol-8(2H)-yl)methyl)benzamide] | – | 251 ± 32.5 | 16.4 ± 0.75 | – | –
3 | CN1C(=O)[C@H]2CN(Cc3c2c2cc(OCCN4CCOCC4)ccc2n3Cc2ccc(C(=O)NO)cc2)C1=O [(R)-21, N-Hydroxy-4-(((6R)-4-methyl-8-(2-morpholinoethoxy)-3,5-dioxo-3,4,5,6-tetrahydro-2,6-methano[1,3]diazocino[5,6-b]indole-11(1B)-yl)methyl)benzamide] | – | 1970 | 7.05 | 13000 | –
4 | CN1C(=O)C2CN(Cc3c2c2cc(OCCN4CCOCC4)ccc2n3Cc2ccc(C(=O)NO)cc2)C1=O (stereo not drawn) [Compound 21, 4-(2-((11-(4-(Hydroxycarbamoyl)benzyl)-4-methyl-3,5-dioxo-1,3,4,5,6,11-hexahydro-2,6-methano[1,3]diazocino[5,6-b]indol-8-yl)oxy)ethyl)morpholin-4-ium chloride] | – | 121 ± 10 | 2.41 ± 0.76 | – | –
5 | CN1C(=O)[C@@H]2CN(Cc3c2c2cc(OCCN4CCOCC4)ccc2n3Cc2ccc(C(=O)NO)cc2)C1=O [(S)-21, N-Hydroxy-4-(((6S)-4-methyl-8-(2-morpholinoethoxy)-3,5-dioxo-3,4,5,6-tetrahydro-2,6-methano[1,3]diazocino[5,6-b]indole-11(1H)-yl)methyl)benzamide] | – | 364 | 3.02 | 1800 | –
6 | CN1C(=O)C2c3c(c4ccccc4n3Cc3ccc(C(=O)NO)cc3)CCN2C1=O (stereo not drawn) [Compound 41, N-Hydroxy-4-((2-methyl-1,3-dioxo-2,3,5,6-tetrahydro-1H-imidazo[1′,5′:1,2]pyrido[3,4-b]indol-11(11bH)-yl)methyl)benzamide] | – | 83 ± 6 | 30.7 ± 5.8 | – | –
7 | CN1C(=O)C2c3c(n(Cc4ccc(C(=O)NO)cc4)c4ccccc34)CCN2C1=O (stereo not drawn) [Compound 31a, N-Hydroxy-4-((2-methyl-1,3-dioxo-2,3,5,6-tetrahydro-1H-imidazo[1′,5′:1,2]pyrido[4,3-b]indol-7(11cH)-yl)methyl)benzamide] | – | – | 8.99 ± 1.11 | – | 248.1 to 251.7
